The nature of series [1]: PK study in rats, single oral administration. The class given is in vivo, rat. Further details: AUC: concentration or dose not given beside the values. The note with it: for AUC / Cmax / Tmax / half-life: rat, single oral administration, plasma. Here is the method: Pharmacokinetics of compounds in rats were analyzed using the following experiment. Rats were fasted overnight prior to administration and until approximately 4 hours after administration. Rats were given a single oral administration of compound at same dose. Administration volume was 10 ml/kg. Blood samples were collected from the retro-orbital sinus at various times over the following 7 hrs. Immediately after each collection, plasmas were separated from blood cells by centrifugation and stored at −20° C. until the analysis was performed. The plasma samples were analyzed using a reverse phase high-performance chromatography (HPLC) method.

Series [2] has as its target T1, vanilloid receptor (Rattus norvegicus, UniProt O35433).
T1 construct: DRG nerve cells from the primary culture of 2 days were equilibrated by washing 4 times; endogenous in cells; host or cells: primary culture of dorsal root ganglion neurons from neonatal SD rats
The series can be described thus: 45Ca influx test (calcium uptake) in primary cultured DRG neurons, capsaicin 0.5 μM. The class given is cell-based. As for the experimental part:
1) Separation of Spinal Dorsal Root Ganglia (DRG) in Newborn Rats and Primary Culture Thereof
Neonatal (2-3 day old or younger than 2-3 day old) SD rats were put in ice for 5 minutes to anesthetize and disinfected with 70% ethanol. […] The DRG were incubated sequentially at 37° C. for 30 mins in 200 U/ml collagenase and 2.5 mg/ml trypsin, separately. The ganglia were washed twice with DME/F12 medium supplemented with 10% horse serum, triturated through a fire-polished Pasteur pipette, filtered through Nitex 80 membrane to obtain single cell suspension and the suspension was washed once more. This was subjected to centrifugation, then resuspended in cell culture medium at certain level of cell density. As the cell culture medium, DME/F12 medium supplemented with 10% horse serum was diluted with identical medium conditioned by C6 glioma cells 2 days on a confluent monolayer (1:1), and NGF (Nerve Growth Factor) was added to adjust 200 ng/ml as final concentration. After the cells were grown 2 days in medium where cytosine arabinoside (Ara-C, 100 μM) was added to kill dividing nonneuronal cells, medium was changed to one without Ara-C. The resuspended cells were plated at a density of 1500-2000 neurons/well onto Terasaki plates previously coated with 10 μg/ml poly-D-ornithine.
2) ^45Ca Influx Experiments
DRG nerve cells from the primary culture of 2 days were equilibrated by washing 4 times with HEPES (10 mM, pH 7.4)-buffered Ca^2+, Mg^2+-free HBSS (H-HBSS). The solution in each well was removed from the individual well. Medium containing the test compound plus capsaicin (final concentration 0.5 μM) and ^45Ca (final concentration 10 μCi/ml) in H-HBSS was added to each well and incubated at room temperature for 10 mins. Terasaki plates were washed five times with H-HBSS and dried at room temperature. To each well, 0.3% SDS (10 μl) was added to elute ^45Ca. After the addition of scintillation cocktail of into each well, the amount of ^45Ca influx into neuron was measured by counting radioactivity.

The mark [3] stands for this setting: Table 2, read-out: T½ (converted).
Setting [4] is: comparison with comparative compounds F and G, read-out: IC50 value.
The mark [5] stands for this setting: Table 4, detection limit 0.100 mcg/ml.
The mark [6] stands for this setting: rat DRG neurons, capsaicin 0.5 μM, 45Ca, read-out: Antagonist Calcium Uptake Test (IC50).
[7] abbreviates: Table 3, detection limit 0.100 mcg/ml.
[8] abbreviates: Table 3, comparative compounds having tert-butyl-phenyl, read-out: IC50.

The results in this text go back to patent publication US8557872B2, “Compounds, isomer thereof, or pharmaceutically acceptable salts thereof as vanilloid receptor antagonist; and pharmaceutical compositions containing the same” (Amorepacific Corporation, priority 2008, dated 2013).

Like-named read-outs stand apart in the source and are kept apart here.

T1 sequence (O35433 whole entry): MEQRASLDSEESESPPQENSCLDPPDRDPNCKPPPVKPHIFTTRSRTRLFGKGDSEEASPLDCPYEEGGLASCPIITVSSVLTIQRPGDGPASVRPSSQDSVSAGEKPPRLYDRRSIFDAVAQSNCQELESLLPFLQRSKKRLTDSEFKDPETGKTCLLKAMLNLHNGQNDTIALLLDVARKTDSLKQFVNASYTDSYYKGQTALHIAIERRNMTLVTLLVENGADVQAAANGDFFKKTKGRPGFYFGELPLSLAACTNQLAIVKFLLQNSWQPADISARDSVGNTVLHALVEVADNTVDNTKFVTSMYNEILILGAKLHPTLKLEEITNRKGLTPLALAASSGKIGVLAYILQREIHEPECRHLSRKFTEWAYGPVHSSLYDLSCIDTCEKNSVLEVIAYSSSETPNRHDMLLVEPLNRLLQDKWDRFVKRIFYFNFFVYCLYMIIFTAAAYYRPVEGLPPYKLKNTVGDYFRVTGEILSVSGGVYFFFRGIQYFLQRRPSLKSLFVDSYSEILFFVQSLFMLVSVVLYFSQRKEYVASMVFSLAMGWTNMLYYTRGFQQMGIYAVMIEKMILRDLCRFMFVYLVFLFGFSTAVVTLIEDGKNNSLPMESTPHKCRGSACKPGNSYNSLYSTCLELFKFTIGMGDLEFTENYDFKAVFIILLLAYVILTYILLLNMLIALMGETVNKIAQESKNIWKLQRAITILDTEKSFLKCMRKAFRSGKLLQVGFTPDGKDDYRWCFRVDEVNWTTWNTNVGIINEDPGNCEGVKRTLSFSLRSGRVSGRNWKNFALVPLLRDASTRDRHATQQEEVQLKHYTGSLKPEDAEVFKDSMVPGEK

Regarding `C=Cc1cc(CNC(=O)/C=C/c2ccc(C(F)(F)F)cc2NC(C)C)cc(F)c1NS(C)(=O)=O` [Example 54, N-(3-fluoro-4-methanesulfonylamino-5-vinyl-benzyl)-3-(2-isopropylamino-4-trifluoromethyl-phenyl)-acrylamide], in series [1] (Table 2), the AUC (commonly the area under the concentration-time curve, a measure of exposure) was 5320 ng·h/mL; the Cmax (commonly the maximum level reached in the sampled fluid or tissue) worked out at 772 ng/mL; the Tmax (in general, the time at which the peak concentration occurs) was found to be 2 h. Further, in series [1] (setting [3]), the half-life was 4.05 h. Moreover, the IC50 (usually the concentration that gives 50% inhibition) in series [2] (setting [4]) is 27 nM.

On to `C[C@@H](NC(=O)/C=C/c1ccc(C(F)(F)F)cc1)c1cc(F)c(NS(C)(=O)=O)c(F)c1` [Comp Cpd G, reference compound], for which the “PK properties (in terms of T max and AUC)” value in series [1] (oral, in words) is “poor PK-properties”. The molecule also yielded a Cmax in series [1] (setting [5]) below 100 ng/mL. Further, the IC50 in series [2] (Table 4, comparative compounds having CF3-phenyl, read-out: IC50) is above 10000 nM; in series [2] (setting [4]), above 10000 nM.

As to `C=Cc1cc(CNC(=O)/C=C/c2ccc(C(F)(F)F)cc2)ccc1NS(C)(=O)=O` [Comp Cpd F, reference compound], in series [1] (Table 4), the area under the curve (AUC) was determined as 40100 ng·h/mL and the Tmax was determined as 2 h. In addition, the concentration in series [1] (setting [5]) peaked (Cmax) at 5000 ng/mL. Also, the half-life in series [1] (Table 4, read-out: T1/2 (converted)) was 4.59 h. In addition, the IC50 in series [2] (setting [4]) came out at 570 nM.

For the molecule `CCCCc1cc(C(F)(F)F)ccc1/C=C/C(=O)N[C@H](C)c1cc(F)c(NS(C)(=O)=O)c(F)c1` [Example 24, (R)-3-(2-Butyl-4-trifluoromethyl-phenyl)-N-[1-(3,5-difluoro-4-methanesulfonylamino-phenyl)-ethyl]-acrylamide], in series [1] (Table 2), the AUC came out at 5690 ng·h/mL, the highest level (Cmax) was 1190 ng/mL and the Tmax is 2 h. In addition, the half-life in series [1] (setting [3]) is 2.08 h. The IC50 in series [2] (setting [6]) was 44 nM.

In series [1] (setting [7]), `CCCc1cc(C(C)(C)C)ccc1/C=C/C(=O)N[C@H](C)c1cc(F)c(NS(C)(=O)=O)c(F)c1` [Comp Cpd E, reference compound] displayed a Cmax below 100 ng/mL. Also, in series [2] (setting [8]), the half-maximal inhibitory concentration (IC50) came to 2300 nM.

Take `CCCc1cc(C(F)(F)F)ccc1/C=C/C(=O)NCc1cc(F)c(NS(C)(=O)=O)c(F)c1` [Example 22, N-(3,5-Difluoro-4-methanesulfonylamino-benzyl)-3-(2-propyl-4-trifluoromethyl-phenyl)-acrylamide]: in series [1] (Table 2), the AUC was found to be 19200 ng·h/mL, the concentration peaked (Cmax) at 3660 ng/mL and the Tmax stood at 2 h. Also, in series [1] (setting [3]), the half-life is 2.58 h. Besides, in series [2] (setting [6]), the IC50 was 160 nM.

Regarding `CCCNc1cc(C(C)(C)C)ccc1/C=C/C(=O)NCc1cc(F)c(NS(C)(=O)=O)c(F)c1` [Comp Cpd D, reference compound], the Cmax in series [1] (setting [7]) was below 100 ng/mL. For the same molecule, the IC50 in series [2] (setting [8]) is 85 nM.

In the case of `CCCNc1cc(C(F)(F)F)ccc1/C=C/C(=O)NCc1cc(F)c(NS(C)(=O)=O)c(F)c1` [Example 2, N-(3,5-Difluoro-4-methanesulfonylamino-benzyl)-3-(2-propylamino-4-trifluoromethyl-phenyl)-acrylamide], in series [1] (Table 2), the AUC stood at 7150 ng·h/mL, the peak concentration (Cmax) was determined as 1420 ng/mL and the Tmax stood at 2 h. Besides, in series [1] (setting [3]), the half-life is 3.55 h. Besides, the IC50 in series [2] (setting [6]) was determined as 170 nM.

As to `CCCOc1cc(C(F)(F)F)ccc1/C=C/C(=O)N[C@H](C)c1cc(F)c(NS(C)(=O)=O)c(F)c1` [Example 5, (R)—N-[1-(3,5-Difluoro-4-methanesulfonylamino-phenyl)-ethyl]-3-(2-propoxy-4-trifluoromethyl-phenyl)-acrylamide], in series [1] (Table 2), the exposure (AUC) was found to be 22500 ng·h/mL, the Cmax turned out to be 2630 ng/mL and the Tmax came out at 3.5 h. Further, the half-life in series [1] (setting [3]) was 4.3 h. Further, the IC50 in series [2] (setting [6]) is 120 nM.

Take `CCCc1cc(C(F)(F)F)ccc1/C=C/C(=O)N[C@H](C)c1cc(F)c(NS(C)(=O)=O)c(F)c1` [Example 21, N-[1-(3,5-Difluoro-4-methanesulfonylamino-phenyl)-ethyl]-3-(2-propyl-4-trifluoromethyl-phenyl)-acrylamide]: in series [1] (Table 2), the AUC amounted to 16400 ng·h/mL, the peak level (Cmax) was 2720 ng/mL and the Tmax turned out to be 2 h. Further, in series [1] (setting [3]), the half-life is 3.5 h. Besides, the IC50 in series [2] (setting [6]) is 19 nM.
